One series has as its system A2780. The experiment in a line: MTT cell growth inhibition: A2780. It is filed as cell-based. The settings on record: A2780 ovarian carcinoma; for inhibition at 25 µM / GI50: Homo sapiens; for inhibition at 25 µM / Percentage (%) Cell Growth Inhibition in response to 25 µM of Drug: 72 h, MTT; for inhibition at 25 µM: read-out: Percentage (%) Cell Growth Inhibition in response to 25 µM of Drug; for GI50: read-out: GI50 = Concentration (µM) that inhibits cell growth by 50%, dose response. The method, then:
All test agents were prepared as stock solutions (20 mM) in dimethyl sulfoxide (DMSO) and stored at −20 °C. Cell lines used in the study included HT29 (colorectal carcinoma); U87, SJ-G2, (glioblastoma); MCF-7, (breast carcinoma); A2780 (ovarian carcinoma); H460 (lung carcinoma); A431 (skin carcinoma); Du145 (prostate carcinoma); BE2-C (neuroblastoma); MiaPaCa-2 (pancreatic carcinoma); and SMA560 (spontaneous murine astrocytoma), together with the one non-tumour-derived normal breast cell line (MCF10A). All cell lines were incubated in a humidified atmosphere 5% CO2 at 37 °C. The cancer cell lines were maintained in Dulbecco’s modified Eagle’s medium (DMEM; Sigma, Australia) supplemented with foetal bovine serum (10%), sodium pyruvate (10 mM), penicillin (100 IUmL^−1), streptomycin (100 µg mL^−1) and L-glutamine (2 mM).
Growth inhibition was determined by plating cells in duplicate in medium (100 µL) at a density of 2500–4000 cells per well in 96-well plates. On day 0 (24 h after plating), when the cells were in logarithmic growth, medium (100 µL) with or without the test agent was added to each well. After 72 h drug exposure, growth inhibitory effects were evaluated using the MTT (3-(4,5-dimethyltiazol-2-yl)-2,5-diphenyltetrazolium bromide) assay and absorbance read at 540 nm. The percentage growth inhibition was calculated at a fixed concentration of 25 µM, based on the difference between the optical density values on day 0 and those at the end of drug exposure. Each data point is the mean ± the standard error of the mean (SEM) calculated from three replicates which were performed on separate occasions and separate cell line passages.

Series [1] can be described thus: Appearance of the 1 mg/mL aqueous solution tested. It is filed as physicochemical. The settings on record: 1 mg/mL in water.
Series [2] relates to rat intestinal maltase α-glucosidase. The experiment in a line: Glycosidase inhibition, laboratory 1: rat intestinal maltase. It is filed as biochemical. The settings on record: methanol; for IC50: rat intestinal maltase α-glucosidase. From the text:
(§1) The enzymes α-glucosidase (from yeast), β-glucosidases (from almond and bovine liver), α-galactosidase (from coffee beans), β-galactosidase (from bovine liver), α-mannosidase (from Jack bean), β-mannosidase (from snail), α-L-rhamnosidase (from Penicillium decumbens), α-L-fucosidase (from bovine kidney), trehalase (from porcine kidney), β-glucuronidases (from E. coli and bovine liver), amyloglucosidase (from A. niger), para-nitrophenyl glycosides, and various disaccharides were purchased from Sigma-Aldrich Co (St Louis, MO, USA).
(§2) Brush border membranes were prepared from the rat small intestine according to the method of Kessler et al. and were assayed at pH 6.8 for rat intestinal maltase using maltose. For rat intestinal maltase, porcine kidney trehalase, and A. niger amyloglucosidase activities, the reaction mixture contained 25 mM maltose and the appropriate amount of enzyme, and the incubations were performed for 10–30 min at 37 °C. The reaction was stopped by heating at 100 °C for 3 min. After centrifugation (600× g; 10 min), the resulting reaction mixture was added to the Glucose CII-test Wako (Wako Pure Chemical Ind., Osaka, Japan). The absorbance at 505 nm was measured to determine the amount of the released D-glucose. Other glycosidase activities were determined using an appropriate para-nitrophenyl glycoside as substrate at the optimum pH of each enzyme. The reaction mixture contained 2 mM of the substrate and the appropriate amount of enzyme. The reaction was stopped by addition of 400 mM Na2CO3. The released para-nitrophenol was measured spectrometrically at 400 nm. All reactions run in methanol.

The target of series [3] is T1, bovine liver β-glucosidase (Bos taurus, UniProt F1MNT6).
T1 sequence (F1MNT6 1-469): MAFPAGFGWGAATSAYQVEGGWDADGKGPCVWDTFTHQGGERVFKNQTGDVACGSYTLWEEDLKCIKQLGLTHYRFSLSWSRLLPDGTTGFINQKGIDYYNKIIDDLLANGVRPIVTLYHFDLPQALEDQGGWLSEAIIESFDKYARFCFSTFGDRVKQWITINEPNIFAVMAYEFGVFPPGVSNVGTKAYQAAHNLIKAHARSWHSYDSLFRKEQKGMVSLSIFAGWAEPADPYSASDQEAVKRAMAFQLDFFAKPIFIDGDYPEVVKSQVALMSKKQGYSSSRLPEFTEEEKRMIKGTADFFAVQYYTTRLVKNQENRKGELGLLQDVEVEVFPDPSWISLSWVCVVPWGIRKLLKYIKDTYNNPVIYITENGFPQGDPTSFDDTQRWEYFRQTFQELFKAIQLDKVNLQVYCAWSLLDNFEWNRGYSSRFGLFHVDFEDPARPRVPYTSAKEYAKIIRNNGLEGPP
Description: Glycosidase inhibition, laboratory 1: bovine liver β-glucosidase. As to conditions: methanol. It is filed as biochemical.
Description: as §1, §2

The target of a further series is rice α-glucosidase (Oryza sativa subsp. japonica, UniProt Q653V7). Description: Glycosidase inhibition, laboratory 1: rice α-glucosidase. It is filed as biochemical. As to conditions: methanol.
rice α-glucosidase, sequence (Q653V7 34-885): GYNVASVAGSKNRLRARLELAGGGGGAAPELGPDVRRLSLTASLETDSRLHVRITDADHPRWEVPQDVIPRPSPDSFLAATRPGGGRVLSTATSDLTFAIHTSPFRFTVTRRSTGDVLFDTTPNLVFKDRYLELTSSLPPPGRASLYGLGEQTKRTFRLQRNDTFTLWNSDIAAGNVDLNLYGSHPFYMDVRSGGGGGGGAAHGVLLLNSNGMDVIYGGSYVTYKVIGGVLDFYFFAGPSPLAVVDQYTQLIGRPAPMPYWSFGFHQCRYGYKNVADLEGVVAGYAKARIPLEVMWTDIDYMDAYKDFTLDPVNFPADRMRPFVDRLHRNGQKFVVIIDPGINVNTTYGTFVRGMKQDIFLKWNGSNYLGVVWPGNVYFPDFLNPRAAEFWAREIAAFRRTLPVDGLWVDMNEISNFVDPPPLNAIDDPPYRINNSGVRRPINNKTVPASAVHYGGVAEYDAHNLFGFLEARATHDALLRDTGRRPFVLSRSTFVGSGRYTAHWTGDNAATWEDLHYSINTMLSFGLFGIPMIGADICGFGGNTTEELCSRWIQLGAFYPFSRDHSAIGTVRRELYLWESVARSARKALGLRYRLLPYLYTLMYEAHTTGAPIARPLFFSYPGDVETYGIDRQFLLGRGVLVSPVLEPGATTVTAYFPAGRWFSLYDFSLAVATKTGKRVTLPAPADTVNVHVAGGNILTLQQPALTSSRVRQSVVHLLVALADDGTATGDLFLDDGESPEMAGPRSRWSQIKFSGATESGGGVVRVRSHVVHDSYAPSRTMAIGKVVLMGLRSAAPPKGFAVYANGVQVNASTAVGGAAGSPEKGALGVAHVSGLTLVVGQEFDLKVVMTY
A further series has as its system Du145. The experiment in a line: MTT cell growth inhibition: Du145. It is filed as cell-based. The settings on record: Homo sapiens, DU-145, read-out: GI50 = Concentration (µM) that inhibits cell growth by 50%; Du145 prostate carcinoma; dose response.
For series [4], the system named is panel of 10 cancer cell lines and a normal cell line (MCF10A). Description: Cancer screening: whole cell line panel. It is filed as cell-based. As to conditions: for GI50: Homo sapiens, read-out: GI50 values across all cancer cell lines and the normal cell line.
In the next series the test system is HT29. The experiment in a line: MTT cell growth inhibition: HT29. It is filed as cell-based. The settings on record: Homo sapiens, HT-29, read-out: GI50 = Concentration (µM) that inhibits cell growth by 50%; HT29 colon carcinoma; dose response.
The next series has as its system MCF10A. The experiment in a line: MTT cell growth inhibition: MCF10A normal breast. It is filed as cell-based. As to conditions: Homo sapiens, MCF-10A, read-out: GI50 = Concentration (µM) that inhibits cell growth by 50%.
The test system of the next series is MIA-Pa-Ca2. Description: MTT cell growth inhibition: MIA-Pa-Ca2. It is filed as cell-based. As to conditions: Homo sapiens, MIA PaCa-2, read-out: GI50 = Concentration (µM) that inhibits cell growth by 50%; MIA-Pa-Ca2 pancreatic carcinoma; dose response.
The test system of another series is SJ-G2. The experiment in a line: MTT cell growth inhibition: SJ-G2. It is filed as cell-based. The settings on record: read-out: GI50 = Concentration (µM) that inhibits cell growth by 50%; SJ-G2 glioblastoma; dose response.
In another series the test system is BE2-C. The experiment in a line: MTT cell growth inhibition: BE2-C. It is filed as cell-based. The settings on record: Homo sapiens, BE(2)-C, read-out: GI50 = Concentration (µM) that inhibits cell growth by 50%; BE2-C neuroblastoma; dose response.
The subject of the next series is panel of 15 glycosidases. The experiment in a line: Glycosidase inhibition, laboratory 1: whole panel. It is filed as biochemical. As to conditions: laboratory 1, methanol; range or words over enzymes.
Description: as §1
as §2, with “After centrifugation (600× g; 10 min), the resulting reaction mixture was added to the Glucose CII-test Wako (Wako Pure Chemical Ind., Osaka, Japan).” left out, “The reaction mixture contained 2 mM of the substrate and the appropriate amount of enzyme. The reaction was stopped by addition of 400 mM Na2CO3.” left out, “All reactions run in methanol.” left out

Where only a bound is given, the exact number is not on record here.

Broadly, the inhibition is the percentage by which the read-out fell short of the control. Broadly, the IC50 is the concentration at which inhibition is half-maximal. Read a high IC50 as a need for much substance.

With `N[C@@H](Cc1ccc(B(O)O)cc1)C(=O)O` [BPA, 4-borono-L-phenylalanine, reference compound], in the series on A2780, the inhibition at 25 µM came out at 4 ± 1%. Moreover, the “Appearance of the 1 mg/mL Aqueous Solution Tested” value (“Appearance” below) in [1] is given as “some in solution with undissolved sediment”. The “inhibition % at 100 μM” value in [2] (rat intestinal maltase) is “^cNI ^d(0%)”.
For the molecule `N[C@@H](Cc1ccc(B(O)O)cc1)C(=O)O` [^10B-BPA, reference compound], in the series with A2780, the “Percentage (%) Cell Growth Inhibition in response to 25 µM of Drug” value is 8 ± 4%. Also, the “inhibition % at 100 μM” value is “^cNI ^d (14.2%)” in series [3] (100 μM), “^cNI ^d (0%)” in series [2] (rat intestinal maltase) and “^cNI ^d(0%)” against rice α-glucosidase (100 μM). For the same molecule, the “Appearance” value in [1] is “some in solution with undissolved sediment”.
For the molecule `CC1(C)OB(c2cccc(CN3C(=O)c4c(Cl)c(Cl)c(Cl)c(Cl)c4C3=O)c2)OC1(C)C` [meta 3, 4,5,6,7-Tetrachloro-2-(3-(4,4,5,5-tetramethyl-1,3,2-dioxaborolan-2-yl)benzyl)isoindoline-1,3-dione], the GI50 is 30 ± 0.41 µM in the series on Du145; 18 to 38 µM in series [4]; 19 ± 0.33 µM in the series on A2780; 26 ± 2.6 µM with HT29; 18 ± 1 µM in the series with MCF10A; 38 ± 2.9 µM in the series with MIA-Pa-Ca2. Besides, the GI50 is 35 ± 1.7 µM with SJ-G2 and 29 ± 0.58 µM in the series with BE2-C. Also, the inhibition at 25 µM in the series with A2780 is 70 ± 2%. The inhibition at 10 µM came out at 18.8% in [3] and 5.1% against rice α-glucosidase. Besides, the “Appearance” value in series [1] is given as “opaque suspension”. Further, the “inhibition % at 10 μM” value in [2] (rat intestinal maltase) is listed as “^cNI ^d (22.1%)”.
With `CC1(C)OB(c2cccc(NC(=O)c3cc(Cl)c(Cl)c(Cl)c3Cl)c2)OC1(C)C` [meta 5, 2,3,4,5-tetrachloro-N-(3-(4,4,5,5-tetramethyl-1,3,2-dioxaborolan-2-yl)phenyl)benzamide], the inhibition at 25 µM in the series with A2780 is 49 ± 4%. The “Appearance” value in series [1] is listed as “some in solution with undissolved sediment”. Moreover, the IC50 in series [2] is 274 µM. For the same molecule, at 100 µM the inhibition against rice α-glucosidase (100 μM) was 45.5%.
As to `CC1(C)OB(c2ccccc2NC(=O)c2cc(Cl)c(Cl)c(Cl)c2Cl)OC1(C)C` [ortho 5, 2,3,4,5-Tetrachloro-N-(2-(4,4,5,5-tetramethyl-1,3,2-dioxaborolan-2-yl)phenyl)benzamide], the GI50 was 16 ± 1.9 µM in the series on Du145; 11 to 27 µM in [4]; 16 ± 1.2 µM with A2780; 14 ± 1.7 µM with HT29; 27 ± 2.8 µM in the series on MCF10A; 14 ± 0.25 µM in the series with MIA-Pa-Ca2. Besides, the results for the GI50 in the series with SJ-G2 and with BE2-C were 16 ± 0.91 µM and 16 ± 0.58 µM, respectively. Besides, the “percent inhibition across the glycosidase panel” value with panel of 15 glycosidases is recorded as “no significant inhibition”. In addition, the inhibition at 25 µM in the series with A2780 is 97 ± 2%. In addition, the inhibition at 10 µM was determined as 21.2% in series [3] and 0% on rice α-glucosidase. Further, the “Appearance” value in series [1] is on record as “some in solution with undissolved sediment”. Moreover, the “inhibition % at 10 μM” value in series [2] (rat intestinal maltase) was “^cNI ^d(3%)”.
Consider `CC1(C)OB(c2ccccc2CNC(=O)c2cc(Cl)c(Cl)c(Cl)c2Cl)OC1(C)C` [ortho 8, 2,3,4,5-tetrachloro-N-(2-(4,4,5,5-tetramethyl-1,3,2-dioxaborolan-2-yl)benzyl)benzamide], for which, in series [4] (25 μM, range or words over cell lines), the “Percent cell growth inhibition across the cell line panel” value was “almost complete abrogation of cell growth inhibition”. The inhibition at 25 µM in the series on A2780 worked out at 19 ± 10%. The “Appearance” value in series [1] is on record as “some in solution with undissolved sediment”. For the same molecule, in series [2], inhibition was half-maximal at 305 µM (IC50). Besides, the inhibition at 100 µM on rice α-glucosidase (100 μM) came out at 0%.
`CC1(C)OB(c2ccc(CN3C(=O)c4c(Cl)c(Cl)c(Cl)c(Cl)c4C3=O)cc2)OC1(C)C` [para 3, 4,5,6,7-Tetrachloro-2-(4-(4,4,5,5-tetramethyl-1,3,2-dioxaborolan-2-yl)benzyl)isoindoline-1,3-dione]: the GI50 with Du145 is 5.5 ± 0.23 µM; in [4], 3 to 18 µM; with A2780, 11 ± 1.1 µM; with HT29, 5.3 ± 1.3 µM; with MCF10A, 12 ± 0.58 µM; with MIA-Pa-Ca2, 9.2 ± 1.9 µM. For the same molecule, the results for the GI50 in the series with SJ-G2 and with BE2-C were 6.6 ± 2.4 µM and 8.1 ± 1.7 µM, respectively. For the same molecule, the inhibition at 25 µM in the series on A2780 was above 100%. Moreover, the inhibition at 100 µM worked out at 4% in [3] (100 μM) and 5.6% on rice α-glucosidase (100 μM). Moreover, the “Appearance” value in [1] is “some in solution with undissolved sediment”. For the same molecule, in [2] (rat intestinal maltase), the “inhibition % at 100 μM” value was “^aNI ^b (12.2%)”.
For `CC1(C)OB(c2ccc(NC(=O)c3cc(Cl)c(Cl)c(Cl)c3Cl)cc2)OC1(C)C` [para 5, 2,3,4,5-tetrachloro-N-(4-(4,4,5,5-tetramethyl-1,3,2-dioxaborolan-2-yl)phenyl)benzamide], the inhibition at 25 µM in the series on A2780 worked out at 50 ± 1%. For the same molecule, the “Appearance” value in series [1] is “some in solution with undissolved sediment”. In addition, inhibition in series [2] was half-maximal at 188 µM (IC50). 100 µM produced 0% inhibition against rice α-glucosidase (100 μM).
Consider “Borocaptate sodium [BSH, reference compound]”, for which the “Percentage (%) Cell Growth Inhibition in response to 25 µM of Drug” value in the series with A2780 came out at 2 ± 5%. Further, the “inhibition % at 1000 μM” value was “^aNI ^b (15%)” in series [3] (1000 μM); “^aNI ^b(0%)” in series [2] (rat intestinal maltase, 1000 μM); “^aNI ^b(0%)” on rice α-glucosidase (1000 μM). Besides, the “Appearance” value in series [1] is reported as “in solution”.
